Measurements from ChEMBL document CHEMBL1909046, “DrugMatrix in vitro pharmacology data”.

Columns and labels:
[1] = DRUGMATRIX: Serotonin (5-Hydroxytryptamine) 5-HT3 radioligand binding (ligand: [3H] GR-65630); format: cell membranes, Membrane; conditions: hek293; Not Active = under 50% inhibition at 10 µM
Mu-type opioid receptor = Mu-type opioid receptor (Homo sapiens, UniProt P35372); assay: DRUGMATRIX: Opiate mu (OP3, MOP) radioligand binding (ligand: [3H] Diprenorphine); format: cell membranes, CHO-K1, Membrane; conditions: Not Active = under 50% inhibition at 10 µM
[2] = molecular target: T1, 5-hydroxytryptamine receptor 1A (Rattus norvegicus, UniProt P19327); format: cell membranes, CHO-K1, Membrane; conditions: for Ki: read-out: Ki; as to all read-outs here: in other assays of this panel Not Active means under 50% inhibition at 10 µM
T1 sequence (P19327 whole entry): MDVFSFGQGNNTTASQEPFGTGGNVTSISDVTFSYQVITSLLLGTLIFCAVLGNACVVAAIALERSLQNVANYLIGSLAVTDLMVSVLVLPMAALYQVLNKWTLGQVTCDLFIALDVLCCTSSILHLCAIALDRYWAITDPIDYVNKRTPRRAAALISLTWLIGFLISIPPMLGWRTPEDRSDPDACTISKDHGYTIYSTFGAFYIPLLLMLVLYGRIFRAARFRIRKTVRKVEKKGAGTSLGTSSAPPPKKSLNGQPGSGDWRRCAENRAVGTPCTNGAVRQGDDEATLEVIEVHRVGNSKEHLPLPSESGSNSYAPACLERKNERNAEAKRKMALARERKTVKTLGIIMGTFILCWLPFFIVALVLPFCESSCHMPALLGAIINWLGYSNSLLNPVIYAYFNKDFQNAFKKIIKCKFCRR

Insulin receptor = Insulin receptor (Rattus norvegicus, UniProt P15127); format: cell membranes, Wistar, Liver, Membrane; also: in other assays of this panel Not Active means under 50% inhibition at 10 µM
[3] = molecular target: Mitogen-activated protein kinase 1 (Homo sapiens, UniProt P28482); assay: DRUGMATRIX: Protein Serine/Threonine Kinase, ERK2 enzyme inhibition (substrate: Myelin Basic Protein); set-up: species or system Escherichia coli; conditions: Not Active = under 50% inhibition at 10 µM
[4] = molecular target: T2, Cholecystokinin receptor type A (Homo sapiens, UniProt P32238); format: cell membranes, Membrane; conditions: 1321-n1; also: in other assays of this panel Not Active means under 50% inhibition at 10 µM
T2 sequence (P32238 whole entry): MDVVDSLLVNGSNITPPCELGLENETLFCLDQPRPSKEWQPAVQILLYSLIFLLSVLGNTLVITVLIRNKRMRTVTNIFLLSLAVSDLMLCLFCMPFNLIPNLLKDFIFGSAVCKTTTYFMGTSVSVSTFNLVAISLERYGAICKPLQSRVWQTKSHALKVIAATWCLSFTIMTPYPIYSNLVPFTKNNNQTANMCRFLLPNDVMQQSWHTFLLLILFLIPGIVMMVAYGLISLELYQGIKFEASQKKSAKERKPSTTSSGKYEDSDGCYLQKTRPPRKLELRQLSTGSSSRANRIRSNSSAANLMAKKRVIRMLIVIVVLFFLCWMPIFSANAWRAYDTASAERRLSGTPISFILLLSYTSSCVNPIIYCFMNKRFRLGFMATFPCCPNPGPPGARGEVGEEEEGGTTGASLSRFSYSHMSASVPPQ

Mu-type opioid receptor, sequence (P35372 whole entry): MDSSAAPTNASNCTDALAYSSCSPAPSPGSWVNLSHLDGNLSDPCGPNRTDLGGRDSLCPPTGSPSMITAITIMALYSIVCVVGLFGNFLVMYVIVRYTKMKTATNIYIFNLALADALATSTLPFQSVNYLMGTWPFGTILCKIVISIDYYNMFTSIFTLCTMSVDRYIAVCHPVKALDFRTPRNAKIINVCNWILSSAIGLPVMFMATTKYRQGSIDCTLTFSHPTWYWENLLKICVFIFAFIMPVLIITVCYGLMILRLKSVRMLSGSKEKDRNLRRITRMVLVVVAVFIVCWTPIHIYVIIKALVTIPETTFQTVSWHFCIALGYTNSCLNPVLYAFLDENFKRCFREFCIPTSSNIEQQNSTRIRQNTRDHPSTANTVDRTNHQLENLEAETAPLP
Mitogen-activated protein kinase 1, sequence (P28482 whole entry): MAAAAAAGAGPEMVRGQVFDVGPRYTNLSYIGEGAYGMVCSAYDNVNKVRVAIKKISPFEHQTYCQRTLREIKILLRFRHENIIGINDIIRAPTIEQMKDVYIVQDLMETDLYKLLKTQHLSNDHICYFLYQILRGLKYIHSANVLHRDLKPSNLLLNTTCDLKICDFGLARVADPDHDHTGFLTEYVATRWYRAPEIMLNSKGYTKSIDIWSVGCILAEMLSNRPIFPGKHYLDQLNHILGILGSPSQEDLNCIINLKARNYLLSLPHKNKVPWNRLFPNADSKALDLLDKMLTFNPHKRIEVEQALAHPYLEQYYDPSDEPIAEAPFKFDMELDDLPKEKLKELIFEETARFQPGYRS
Insulin receptor, sequence (P15127 27-759 limits assumed): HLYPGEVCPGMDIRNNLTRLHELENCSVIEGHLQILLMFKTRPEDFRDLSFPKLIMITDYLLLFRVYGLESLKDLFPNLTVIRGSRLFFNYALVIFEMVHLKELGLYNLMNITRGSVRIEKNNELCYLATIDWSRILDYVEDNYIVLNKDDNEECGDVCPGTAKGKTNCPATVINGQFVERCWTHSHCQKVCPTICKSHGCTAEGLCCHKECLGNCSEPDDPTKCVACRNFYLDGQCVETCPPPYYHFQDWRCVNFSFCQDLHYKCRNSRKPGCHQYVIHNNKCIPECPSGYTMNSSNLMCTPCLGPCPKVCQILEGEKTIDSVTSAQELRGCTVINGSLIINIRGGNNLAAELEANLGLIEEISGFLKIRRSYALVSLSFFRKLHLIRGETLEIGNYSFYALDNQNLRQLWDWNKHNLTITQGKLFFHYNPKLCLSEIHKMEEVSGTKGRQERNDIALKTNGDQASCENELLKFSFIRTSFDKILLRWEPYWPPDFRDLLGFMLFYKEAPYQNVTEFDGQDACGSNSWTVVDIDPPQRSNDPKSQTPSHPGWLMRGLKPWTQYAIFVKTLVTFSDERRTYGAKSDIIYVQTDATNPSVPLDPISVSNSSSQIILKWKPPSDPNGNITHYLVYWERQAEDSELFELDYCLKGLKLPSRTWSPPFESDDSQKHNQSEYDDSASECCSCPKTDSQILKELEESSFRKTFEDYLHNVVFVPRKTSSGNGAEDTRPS
Insulin receptor, sequence (P15127 764-1383 limits assumed): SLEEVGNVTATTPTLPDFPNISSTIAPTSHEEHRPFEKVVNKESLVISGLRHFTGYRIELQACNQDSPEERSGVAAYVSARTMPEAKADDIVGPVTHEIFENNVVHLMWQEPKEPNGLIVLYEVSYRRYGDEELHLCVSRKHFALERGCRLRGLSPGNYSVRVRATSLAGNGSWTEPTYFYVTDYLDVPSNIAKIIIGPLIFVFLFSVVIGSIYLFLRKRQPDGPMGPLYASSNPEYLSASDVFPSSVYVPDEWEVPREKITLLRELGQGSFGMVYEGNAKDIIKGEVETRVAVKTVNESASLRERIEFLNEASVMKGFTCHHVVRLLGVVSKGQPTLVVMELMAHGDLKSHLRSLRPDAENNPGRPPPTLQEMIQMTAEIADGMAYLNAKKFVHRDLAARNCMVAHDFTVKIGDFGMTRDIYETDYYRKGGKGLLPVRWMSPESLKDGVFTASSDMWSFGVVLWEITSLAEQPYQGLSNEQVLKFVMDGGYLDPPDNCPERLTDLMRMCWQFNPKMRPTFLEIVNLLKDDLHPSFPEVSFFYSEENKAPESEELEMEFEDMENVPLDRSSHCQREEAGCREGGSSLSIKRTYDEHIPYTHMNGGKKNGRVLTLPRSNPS

CCOC(=O)[C@H](CCc1ccccc1)N[C@@H](C)C(=O)N1CCC[C@H]1C(=O)O
Not Active: IC50 [1] | Ki [1] | IC50 (Mu-type opioid receptor; cho-k1) | IC50 ([2]; cho-k1) | IC50 (Insulin receptor) | IC50 [3] | IC50 [4]

CCC[C@@H]1C[C@@H](C(=O)N[C@@H]([C@H]2O[C@H](SC)[C@H](O)[C@@H](O)[C@H]2O)[C@H](C)Cl)N(C)C1 [CLINDAMYCIN]
Not Active: IC50 [1] | Ki [1] | IC50 (Mu-type opioid receptor; cho-k1) | IC50 ([2]; cho-k1) | IC50 (Insulin receptor) | IC50 [3] | IC50 [4]

CO[C@@]1(NC(=O)CSCC#N)C(=O)N2C(C(=O)O)=C(CSc3nnnn3C)CS[C@@H]21 [CEFMETAZOLE]
Not Active: IC50 [1] | Ki [1] | IC50 (Mu-type opioid receptor; cho-k1) | IC50 ([2]; cho-k1) | IC50 (Insulin receptor) | IC50 [3] | IC50 [4]

CC(C(=O)O)c1ccc(CC2CCCC2=O)cc1 (configuration not stated) [LOXOPROFEN]
Not Active: IC50 [1] | Ki [1] | IC50 (Mu-type opioid receptor; cho-k1) | IC50 ([2]; cho-k1) | IC50 (Insulin receptor) | IC50 [3] | IC50 [4]

C#C[C@]1(O)CC[C@H]2[C@@H]3CCc4cc(O)ccc4[C@H]3CC[C@@]21C [ETHINYL ESTRADIOL]
10.9 µM: Ki (Mu-type opioid receptor)
Not Active: IC50 [1] | Ki [1] | IC50 ([2]; cho-k1) | IC50 (Insulin receptor) | IC50 [3] | IC50 [4]
26.8 µM: IC50 (Mu-type opioid receptor; read-out: IC50)

CC[C@H]1OC(=O)[C@H](C)[C@@H](O[C@H]2C[C@@](C)(OC)[C@@H](O)[C@H](C)O2)[C@H](C)[C@@H](O[C@@H]2O[C@H](C)C[C@H](N(C)C)[C@H]2O)[C@](C)(O)C[C@@H](C)CN(C)[C@H](C)[C@@H](O)[C@]1(C)O [AZITHROMYCIN]
Not Active: IC50 [1] | Ki [1] | IC50 (Mu-type opioid receptor; cho-k1) | IC50 ([2]; cho-k1) | IC50 (Insulin receptor) | IC50 [3] | IC50 [4]

COc1ccc2cc(CCC(C)=O)ccc2c1 [NABUMETONE]
Not Active: IC50 [1] | Ki [1] | IC50 (Mu-type opioid receptor; cho-k1) | IC50 ([2]; cho-k1) | IC50 (Insulin receptor) | IC50 [3] | IC50 [4]

CCCCC1C(=O)N(c2ccccc2)N(c2ccccc2)C1=O [PHENYLBUTAZONE]
Not Active: IC50 [1] | Ki [1] | IC50 (Mu-type opioid receptor; cho-k1) | IC50 ([2]; cho-k1) | IC50 (Insulin receptor) | IC50 [3] | IC50 [4]

C=C1/C(=C\C=C2/CCC[C@]3(C)[C@@H]([C@H](C)CCCC(C)C)CC[C@@H]23)C[C@@H](O)C[C@@H]1O [ALFACALCIDOL]
Not Active: IC50 [1] | Ki [1] | IC50 (Mu-type opioid receptor; cho-k1) | IC50 ([2]; cho-k1) | IC50 (Insulin receptor) | IC50 [3] | IC50 [4]

NC(=O)N1c2ccccc2C=Cc2ccccc21 [CARBAMAZEPINE]
Not Active: IC50 [1] | Ki [1] | IC50 (Mu-type opioid receptor; cho-k1) | IC50 ([2]; cho-k1) | IC50 (Insulin receptor) | IC50 [3] | IC50 [4]

CC(CCc1ccc(O)cc1)NCCc1ccc(O)c(O)c1 (configuration not stated) [DOBUTAMINE]
Not Active: IC50 [1] | Ki [1] | IC50 (Mu-type opioid receptor; cho-k1) | IC50 ([2]; cho-k1) | IC50 (Insulin receptor) | IC50 [3] | IC50 [4]

CC(C)(Sc1cc(C(C)(C)C)c(O)c(C(C)(C)C)c1)Sc1cc(C(C)(C)C)c(O)c(C(C)(C)C)c1 [PROBUCOL]
Not Active: IC50 [1] | Ki [1] | IC50 (Mu-type opioid receptor; cho-k1) | IC50 ([2]; cho-k1) | IC50 (Insulin receptor) | IC50 [3] | IC50 [4]

C/C=C\c1ccc(O)c(OC)c1 [ISOEUGENOL]
Not Active: IC50 [1] | Ki [1] | IC50 (Mu-type opioid receptor; cho-k1) | IC50 ([2]; cho-k1) | IC50 (Insulin receptor) | IC50 [3] | IC50 [4]

[N-]=[N+]=CC(=O)OC[C@H](N)C(=O)O [AZASERINE]
Not Active: IC50 [1] | Ki [1] | IC50 (Mu-type opioid receptor; cho-k1) | IC50 ([2]; cho-k1) | IC50 (Insulin receptor) | IC50 [3] | IC50 [4]

CCOC(=O)C1=C(C)NC(C)=C(C(=O)OC)C1c1cccc(Cl)c1Cl (configuration not stated) [FELODIPINE]
Not Active: IC50 [1] | Ki [1] | IC50 (Mu-type opioid receptor; cho-k1) | IC50 ([2]; cho-k1) | IC50 (Insulin receptor) | IC50 [3] | IC50 [4]

C[C@H](C(=O)O)c1cccc(C(=O)c2ccccc2)c1 [DEXKETOPROFEN]
Not Active: IC50 [1] | Ki [1] | IC50 (Mu-type opioid receptor; cho-k1) | IC50 ([2]; cho-k1) | IC50 (Insulin receptor) | IC50 [3] | IC50 [4]

Cc1c(N(C)CS(=O)(=O)[O-])c(=O)n(-c2ccccc2)n1C.[Na+] [DIPYRONE SODIUM]
Not Active: IC50 [1] | Ki [1] | IC50 (Mu-type opioid receptor; cho-k1) | IC50 ([2]; cho-k1) | IC50 (Insulin receptor) | IC50 [4]

CN1C(=O)CN=C(c2ccccc2)c2cc(Cl)ccc21 [DIAZEPAM]
Not Active: IC50 [1] | Ki [1] | IC50 (Mu-type opioid receptor; cho-k1) | IC50 ([2]; cho-k1) | IC50 (Insulin receptor) | IC50 [3] | IC50 [4]

CO[C@H]1[C@@H](O)[C@H](N)[C@@H](O[C@H]2O[C@H]([C@H](C)N)CC[C@H]2N)[C@H](O)[C@@H]1N(C)C(=O)CN [ASTROMICIN]
Not Active: IC50 [1] | Ki [1] | IC50 (Mu-type opioid receptor; cho-k1) | IC50 ([2]; cho-k1) | IC50 (Insulin receptor) | IC50 [3] | IC50 [4]

CCn1cc(C(=O)O)c(=O)c2cc(F)c(N3CCNCC3)nc21 [ENOXACIN]
Not Active: IC50 [1] | Ki [1] | IC50 (Mu-type opioid receptor; cho-k1) | IC50 ([2]; cho-k1) | IC50 (Insulin receptor) | IC50 [3] | IC50 [4]

CCC(=O)O[C@H]1[C@H](O[C@@H]2[C@@H](C)[C@H](O[C@H]3C[C@@](C)(OC)[C@@H](O)[C@H](C)O3)[C@@H](C)C(=O)O[C@H](CC)[C@@](C)(O)[C@H](O)[C@@H](C)C(=O)[C@H](C)C[C@@]2(C)O)O[C@H](C)C[C@@H]1N(C)C [ERYTHROMYCIN PROPIONATE]
Not Active: IC50 [1] | Ki [1] | IC50 (Mu-type opioid receptor; cho-k1) | IC50 ([2]; cho-k1) | IC50 (Insulin receptor) | IC50 [3] | IC50 [4]

N[C@@H](Cc1ccc(F)cc1)C(=O)O
Not Active: IC50 [1] | Ki [1] | IC50 (Mu-type opioid receptor; cho-k1) | IC50 ([2]; cho-k1) | IC50 (Insulin receptor) | IC50 [3] | IC50 [4]

NC[C@H]1O[C@H](O[C@H]2[C@H](O)[C@@H](O[C@H]3O[C@H](CO)[C@@H](O)[C@H](N)[C@H]3O)[C@H](N)C[C@@H]2N)[C@H](O)[C@@H](O)[C@@H]1O [KANAMYCIN]
Not Active: IC50 [1] | Ki [1] | IC50 (Mu-type opioid receptor; cho-k1) | IC50 ([2]; cho-k1) | IC50 (Insulin receptor) | IC50 [3] | IC50 [4]

Nc1nc(N)nc(NC2CC2)n1 [CYROMAZINE]
Not Active: IC50 [1] | Ki [1] | IC50 ([2]; cho-k1) | IC50 (Insulin receptor) | IC50 [3] | IC50 [4]

CCN[C@@H](C)Cc1cccc(C(F)(F)F)c1 [DEXFENFLURAMINE]
1940 nM: Ki [2]
3400 nM: IC50 ([2]; read-out: IC50)
Not Active: IC50 [1] | Ki [1] | IC50 (Mu-type opioid receptor; cho-k1) | IC50 (Insulin receptor) | IC50 [3] | IC50 [4]

C[C@]12C/C(=C/O)C(=O)C[C@@H]1CC[C@@H]1[C@@H]2CC[C@@]2(C)[C@H]1CC[C@]2(C)O [OXYMETHOLONE]
Not Active: IC50 [1] | Ki [1] | IC50 (Mu-type opioid receptor; cho-k1) | IC50 ([2]; cho-k1) | IC50 (Insulin receptor) | IC50 [3] | IC50 [4]

C=C(CC)C(=O)c1ccc(OCC(=O)O)c(Cl)c1Cl [ETHACRYNIC ACID]
Not Active: IC50 [1] | Ki [1] | IC50 (Mu-type opioid receptor; cho-k1) | IC50 ([2]; cho-k1) | IC50 (Insulin receptor) | IC50 [3] | IC50 [4]

CC(C)C[C@H]1C(=O)N2CCC[C@H]2[C@]2(O)O[C@](NC(=O)[C@@H]3C=C4c5cccc6[nH]c(Br)c(c56)C[C@H]4N(C)C3)(C(C)C)C(=O)N12 [BROMOCRIPTINE]
5.64 nM: IC50 ([2]; read-out: IC50)
Not Active: IC50 [1] | Ki [1] | IC50 (Insulin receptor) | IC50 [3] | IC50 [4]
3.22 nM: Ki [2]

Cc1cnc(C(=O)NCCc2ccc(S(=O)(=O)NC(=O)NC3CCCCC3)cc2)cn1 [GLIPIZIDE]
Not Active: IC50 [1] | Ki [1] | IC50 (Mu-type opioid receptor; cho-k1) | IC50 ([2]; cho-k1) | IC50 (Insulin receptor) | IC50 [4]
